# PMC9693575, “Isopropyl Amino Acid Esters Ionic Liquids as Vehicles for Non-Steroidal Anti-Inflammatory Drugs in Potential Topical Drug Delivery Systems with Antimicrobial Activity” (International Journal of Molecular Sciences, 2022)
# Read-outs that look alike come from different tables or passages of the source.
# Tests used:
# [1] = test system: Staphylococcus epidermidis; assay: Disc diffusion antimicrobial susceptibility test, Staphylococcus epidermidis; assay type: cell-based; design: key to Inhibition diameter: -: no growth of the organism
# Experimental: (§1) The plates were incubated for 24 h at 37 °C.
# [2] = DTG; cited from earlier work
# [3] = cited from earlier work
# [4] = pKa / pKB by potentiometric acid-base titration and formation constant log(KS); details: calculated from pKA of acid and pKB of base
# Experimental: Determination of formation constant pKs
# Zabrze, Poland). For the measurement of pKA acids, 0.1 M NaOH was used. In order to
# ester hydrochloride, HCl aqueous solution, was added in an amount that allowed reach-
# After that, an acid-base titration was made out by adding dropwise 5 mM
# Escherichia coli = assay: Disc diffusion antimicrobial susceptibility test, Escherichia coli; assay type: cell-based; design: key to Inhibition diameter: -: no growth of the organism
# Experimental: as §1
# Micrococcus Luteus = assay: Disc diffusion antimicrobial susceptibility test, Micrococcus luteus; assay type: cell-based; design: key to Inhibition diameter: -: no growth of the organism
# [5] = Solubility in water and phosphate buffers
# From the text: This study aims to compare the influence of amino acid structure on the physicochemical properties of NSAID salts with the isopropyl ester of amino acids.
# [6] = n-octanol-water partition coefficient (logP), shake flask method; assay type: physicochemical; details: n-octanol-water, shake flask; read-out: LogP
# [7] = Solubility in organic solvents (modified Vogel's method); details: 25 °C
# [8] = Thermogravimetric analysis (thermal stability); details: air atmosphere, 10 °C min−1
# Experimental: The thermal stabilities of the obtained NSAIDs isopropyl ester amino acid salts were investigated. […] The beginning of thermal degradation was evaluated based on the value of onset of the TG curve, which occurs in the first phase of the process. […]
# Thermogravimetric analysis (TG)
# Thermogravimetric analysis was carried out using Netzsch Proteus Thermal Analy- […]
# Samples of 5–8 mg were loaded in Al2O3 […]
# ment was performed in an air atmosphere (25 cm3min−1) with nitrogen flow (10 cm3min−1) […]
# Differential scanning calorimetry (DSC)
# Phase transformation temperatures were determined on a PerkinElmer DSC-7 (Rot-gau, Germany). The samples of 3–5 mg were loaded on the aluminum pan with a crimped lid. Measurements were carried out in a nitrogen atmosphere (20 cm3 min-1). The rate of heating/cooling was 5°C min-1. […]
# tained for 30 min inside the furnace, then cooled to 0°C to condition the sample and the crucible. After that, heating was conducted to the specified temperature, followed by cool-ing. Unless otherwise stated, two complete cycles of heating and cooling were performed.
# The specified maximum temperature was individual for each compound, determined from TG analysis, and it was at least 10°C lower than the onset decomposition tempera-ture. Temperatures reported from DSC data are curve peaks, the melting points being endothermic upon heating and crystallization point being exothermic upon cooling. Lead, indium, tin, and zinc were used as standards to calibrate the temperature. Indium was used for enthalpy measurement calibration. […]
# [9] = solution transferred to disc 25 mg cm^−3
# [10] = solution transferred to disc 50 mg cm^−3
# [11] = solution transferred to disc 100 mg cm^−3
# [12] = solution transferred to disc 200 mg cm^−3
# [13] = solution transferred to disc 400 mg cm^−3
# [14] = solution transferred to disc 600 mg cm^−3
# [15] = solution transferred to disc 800 mg cm^−3
# [16] = solution transferred to disc 1000 mg cm^−3
structure (smiles),measurement,setting,value
CC(C)Cc1ccc(C(C)C(=O)O)cc1.CC(C)OC(=O)C(N)C(C)C (mixture of isomers) [[L-ValOiPr][IBU]],Inhibition diameter,[1]; [9],7.3 ± 0.2 mm
same,Inhibition diameter,[1]; [10],10.4 ± 0.1 mm
same,Inhibition diameter,[1]; [11],12.8 ± 0.2 mm
same,Inhibition diameter,[1]; [12],13.2 ± 0.2 mm
same,Inhibition diameter,[1]; [13],16.3 ± 0.3 mm
same,Inhibition diameter,[1]; [14],17.7 ± 0.3 mm
same,Inhibition diameter,[1]; [15],18.4 ± 0.2 mm
same,Inhibition diameter,[1]; [16],18.9 ± 0.3 mm
same,"TDTGmax, maximum decomposition temperature",[2],215.5 [50] °C
same,Solubility in Phosphate Buffer pH = 5.4,[3]; pH 5.4,2.351 ± 0.027 [45] g dm^−3
same,"Solubility in Phosphate Buffer pH = 5.4, as active substance",[3]; pH 5.4,1.326 ± 0.027 [45] gAS dm^−3
same,Solubility in Phosphate Buffer pH = 7.4,[3]; pH 7.4,4.998 ± 0.018 [45] g dm^−3
same,"Solubility in Phosphate Buffer pH = 7.4, as active substance",[3]; pH 7.4,2.821 ± 0.018 [45] gAS dm^−3
same,Log(KS) formation constant,[4],5.56
same,Inhibition diameter,Escherichia coli; [9],-
same,Inhibition diameter,Escherichia coli; [10],-
same,Inhibition diameter,Escherichia coli; [11],-
same,Inhibition diameter,Escherichia coli; [12],6.2 ± 0.1 mm
same,Inhibition diameter,Escherichia coli; [13],6.3 ± 0.2 mm
same,Inhibition diameter,Escherichia coli; [14],6.8 ± 0.5 mm
same,Inhibition diameter,Escherichia coli; [16],7.1 ± 0.3 mm
same,Inhibition diameter,Micrococcus Luteus; [9],8.4 ± 0.3 mm
same,Inhibition diameter,Micrococcus Luteus; [10],9.1 ± 0.2 mm
same,Inhibition diameter,Micrococcus Luteus; [11],9.6 ± 0.1 mm
same,Inhibition diameter,Micrococcus Luteus; [12],10.5 ± 0.2 mm
same,Inhibition diameter,Micrococcus Luteus; [13],11.2 ± 0.2 mm
same,Inhibition diameter,Micrococcus Luteus; [14],11.7 ± 0.2 mm
same,Inhibition diameter,Micrococcus Luteus; [15],12.6 ± 0.3 mm
same,Inhibition diameter,Micrococcus Luteus; [16],13.2 ± 0.2 mm
"CSCC[C@H](N)C(=O)OC(C)C.O=C(O)c1ccccc1O [[L-MetOiPr][SA], L-methionine isopropyl ester salicylate]",zone of inhibition at 200000 µg/mL,"[1]; Staphylococcus epidermidis, 24 h, solution transferred to disc 200 mg cm^−3, read-out: Inhibition diameter",6.6 ± 0.2 mm
same,zone of inhibition at 400000 µg/mL,"[1]; Staphylococcus epidermidis, 24 h, solution transferred to disc 400 mg cm^−3, read-out: Inhibition diameter",7.1 ± 0.1 mm
same,zone of inhibition at 600000 µg/mL,"[1]; Staphylococcus epidermidis, 24 h, solution transferred to disc 600 mg cm^−3, read-out: Inhibition diameter",7.5 ± 0.2 mm
same,zone of inhibition at 800000 µg/mL,"[1]; Staphylococcus epidermidis, 24 h, solution transferred to disc 800 mg cm^−3, read-out: Inhibition diameter",9.2 ± 0.5 mm
same,Inhibition diameter,[1]; [9],-
same,Inhibition diameter,[1]; [10],-
same,Inhibition diameter,[1]; [11],-
same,"Solubility in Water, as active substance","[5]; deionized water, 25 °C, AS = unmodified acid",6.749 ± 0.533 gAS dm^−3
same,"Solubility in Phosphate Buffer pH = 5.4, as active substance","[5]; pH 5.4, 25 °C, AS = unmodified acid",4.437 ± 0.007 gAS dm^−3
same,solubility thermodynamic,"[5]; pH 5.4, aqueous buffer",10.55 ± 0.007 mg/mL
same,"Solubility in Phosphate Buffer pH = 7.4, as active substance","[5]; pH 7.4, 25 °C, AS = unmodified acid",7.586 ± 0.046 gAS dm^−3
same,solubility thermodynamic,"[5]; pH 7.4, aqueous buffer",18.04 ± 0.046 mg/mL
same,solubility thermodynamic,[5]; water,16 ± 0.533 mg/mL
same,logP,[6],1.78 ± 0.035
same,Log(KS) formation constant,[4],7.00
same,zone of inhibition at 100000 µg/mL,"Escherichia coli; Escherichia coli, 24 h, solution transferred to disc 100 mg cm^−3, read-out: Inhibition diameter",7.8 ± 0.2 mm
same,zone of inhibition at 200000 µg/mL,"Escherichia coli; Escherichia coli, 24 h, solution transferred to disc 200 mg cm^−3, read-out: Inhibition diameter",14.4 ± 0.8 mm
same,zone of inhibition at 400000 µg/mL,"Escherichia coli; Escherichia coli, 24 h, solution transferred to disc 400 mg cm^−3, read-out: Inhibition diameter",16.4 ± 0.3 mm
same,zone of inhibition at 600000 µg/mL,"Escherichia coli; Escherichia coli, 24 h, solution transferred to disc 600 mg cm^−3, read-out: Inhibition diameter",18.8 ± 0.4 mm
same,Inhibition diameter,Escherichia coli; [9],-
same,Inhibition diameter,Escherichia coli; [10],-
same,Solubility in Chloroform (39.1),[7],○ (soluble >100 mg cm^−3)
same,Solubility in DMSO (45.1),[7],○ (soluble >100 mg cm^−3)
same,Solubility in Dichloromethane (40.7),[7],○ (soluble >100 mg cm^−3)
same,Solubility in Diethyl Ether (34.5),[7],○ (soluble >100 mg cm^−3)
same,Solubility in Ethanol (59.1),[7],○ (soluble >100 mg cm^−3)
same,Solubility in Ethyl Acetate (38.1),[7],○ (soluble >100 mg cm^−3)
same,Solubility in Hexane (31.0),[7],● (insoluble <33 mg cm^−3)
same,Solubility in Toluene (33.9),[7],○ (soluble >100 mg cm^−3)
same,"TDTGmax, maximum decomposition temperature",[8]; DTG,205.0 °C
same,"TTGonset, the onset of the thermal degradation",[8]; TG,161.1 °C
same,zone of inhibition at 100000 µg/mL,"Micrococcus Luteus; Micrococcus luteus, 24 h, solution transferred to disc 100 mg cm^−3, read-out: Inhibition diameter",6.1 ± 0.1 mm
same,zone of inhibition at 200000 µg/mL,"Micrococcus Luteus; Micrococcus luteus, 24 h, solution transferred to disc 200 mg cm^−3, read-out: Inhibition diameter",6.3 ± 0.1 mm
same,zone of inhibition at 400000 µg/mL,"Micrococcus Luteus; Micrococcus luteus, 24 h, solution transferred to disc 400 mg cm^−3, read-out: Inhibition diameter",7.3 ± 0.4 mm
same,zone of inhibition at 600000 µg/mL,"Micrococcus Luteus; Micrococcus luteus, 24 h, solution transferred to disc 600 mg cm^−3, read-out: Inhibition diameter",8.1 ± 0.9 mm
same,zone of inhibition at 800000 µg/mL,"Micrococcus Luteus; Micrococcus luteus, 24 h, solution transferred to disc 800 mg cm^−3, read-out: Inhibition diameter",10.5 ± 1 mm
same,Inhibition diameter,Micrococcus Luteus; [9],-
same,Inhibition diameter,Micrococcus Luteus; [10],-
